We go through one molecule from the NIST ThermoML archive (doi:10.1021/acs.jced.8b01250).

A short description of data set [1]: Molar enthalpy of transition or fusion. Particulars: Crystal; DSC.
For data set [2] the following is noted: Crystal; DSC.

± gives the expanded uncertainty stated by the source.

As to `N#Cc1cccc([N+](=O)[O-])c1C#N` [3-nitrophthalonitrile], the “Molar enthalpy of transition or fusion” value in data set [1] was 4.59 ± 0.194 kcal/mol. Also, in data set [2], the Triple point temperature was found to be 435.55 ± 1.2 K.
